Measured values published in patent US20250027130A1, “Nucleic Acid Synthesis and Sequencing Using Tethered Nucleoside Triphosphates” (The Regents of the University of California, priority 2022, published 2025).

What was measured:
[1] = tested on: DH10B cells co-expressing MaFRSA; experiment: In vivo incorporation at position 200 of sfGFP, MaFRSA (intact mass, GluC LC-MS/MS); assay type: cell-based, E. coli; conditions: samples iv-v, DH10B, TB, 1 mM substrate
[2] = tested on: DH10B ΔaspC ΔtyrB harboring pMega-MaFRSA; assay type: cell-based, E. coli; conditions: samples viii-ix, TB, 1 mM substrate

Row | Compound | sfGFP containing variant 1 at position 200 [1] | sfGFP containing variant 2 at position 200 [1] | sfGFP containing variant 21 at position 200 [1] | sfGFP containing variant A at position 200 [1] | sfGFP containing variant F at position 200 [1] | sfGFP containing variant K at position 200 [1] | sfGFP containing variant Q at position 200 [1] | sfGFP containing variant W at position 200 [1] | sfGFP containing variant Y at position 200 [1] | sfGFP containing variant 1 at position 200 [2] | sfGFP containing variant 2 at position 200 [2] | sfGFP containing variant 21 at position 200 [2] | sfGFP containing variant A at position 200 [2] | sfGFP containing variant F at position 200 [2] | sfGFP containing variant K at position 200 [2] | sfGFP containing variant Q at position 200 [2] | sfGFP containing variant W at position 200 [2] | sfGFP containing variant Y at position 200 [2] | sfGFP containing variant 20 at position 200 [1] | sfGFP containing variant 20 at position 200 [2]
1 | N[C@@H](Cc1cccc(C(F)(F)F)c1)C(=O)O [Substrate 20] | 0.00% | 0.00% | 0.32% | 0.03% | 0.34% | 0.02% | 0.11% | 0.17% | 0.28% | 0.00% | 0.00% | 0.65% | 0.02% | 0.34% | 0.01% | 0.07% | 0.12% | 0.60% | – | –
2 | N[C@@H](Cc1cccc(C(F)(F)F)c1)C(=O)O [Sample 20] | – | – | – | – | – | – | – | – | – | – | – | – | – | – | – | – | – | – | 98.73% | 98.19%
